Reference: PubChem BioAssay (NCI)
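48-hour exposure; five concentrations; linearly interpolated endpoints. Definition used: TGI = concentration required for complete inhibition of growth.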

Tests used:
Assay in all cases: NCI tumour cell line growth inhibition, 48 h
KM20L2 colon = system: KM20L2 colon
HCC-2998 colon = system: HCC-2998 colon
SK-MEL-2 melanoma = system: SK-MEL-2 melanoma
LOX IMVI melanoma = system: LOX IMVI melanoma
T-47D breast = system: T-47D breast
RPMI-8226 leukemia = system: RPMI-8226 leukemia
OVCAR-3 ovarian = system: OVCAR-3 ovarian
KM12 colon = system: KM12 colon
MOLT-4 leukemia = system: MOLT-4 leukemia
NCI-H226 lung = system: NCI-H226 lung
SF-295 CNS = system: SF-295 CNS
DLD-1 colon = system: DLD-1 colon
CAKI-1 renal = system: CAKI-1 renal
P388 leukemia = system: P388 leukemia
RXF 393 renal = system: RXF 393 renal
HCT-15 colon = system: HCT-15 colon
NCI-H23 lung = system: NCI-H23 lung
K-562 leukemia = system: K-562 leukemia
EKVX NSCLC = system: EKVX NSCLC
M14 melanoma = system: M14 melanoma
SF-539 CNS = system: SF-539 CNS
SK-OV-3 ovarian = system: SK-OV-3 ovarian
U251 CNS = system: U251 CNS
A549 NSCLC = system: A549 NSCLC
HL-60(TB) leukemia = system: HL-60(TB) leukemia
SNB-19 CNS = system: SNB-19 CNS
BT-549 breast = system: BT-549 breast
TK-10 renal = system: TK-10 renal
SNB-75 CNS = system: SNB-75 CNS
SN12C renal = system: SN12C renal
NCI-H460 lung = system: NCI-H460 lung
UO-31 renal = system: UO-31 renal
PC-3 prostate = system: PC-3 prostate
OVCAR-4 ovarian = system: OVCAR-4 ovarian
UACC-62 melanoma = system: UACC-62 melanoma
HS 578T breast = system: HS 578T breast
DMS 114 small cell lung = system: DMS 114 small cell lung
SW-620 colon = system: SW-620 colon
HOP-62 NSCLC = system: HOP-62 NSCLC
NCI-H522 lung = system: NCI-H522 lung
MDA-MB-435 = system: MDA-MB-435
M19-MEL melanoma = system: M19-MEL melanoma
786-0 renal = system: 786-0 renal
DU-145 prostate = system: DU-145 prostate
MDA-MB-231 breast = system: MDA-MB-231 breast
MCF7 breast = system: MCF7 breast
COLO 205 colon = system: COLO 205 colon
NCI/ADR-RES ovarian = system: NCI/ADR-RES ovarian
A498 renal = system: A498 renal
OVCAR-8 ovarian = system: OVCAR-8 ovarian
MDA-N = system: MDA-N
SK-MEL-28 melanoma = system: SK-MEL-28 melanoma
SF-268 CNS = system: SF-268 CNS
OVCAR-5 ovarian = system: OVCAR-5 ovarian
HT29 colon = system: HT29 colon
CCRF-CEM leukemia = system: CCRF-CEM leukemia
MALME-3M melanoma = system: MALME-3M melanoma
SNB-78 CNS = system: SNB-78 CNS
SK-MEL-5 melanoma = system: SK-MEL-5 melanoma
SR leukemia = system: SR leukemia
HOP-92 NSCLC = system: HOP-92 NSCLC
UACC-257 melanoma = system: UACC-257 melanoma
SN12K1 renal = system: SN12K1 renal
DMS 273 small cell lung = system: DMS 273 small cell lung
HOP-18 NSCLC = system: HOP-18 NSCLC
IGROV1 ovarian = system: IGROV1 ovarian

Work on CO[C@H]1Nc2c(ccc(C)c2O)C(=O)N2C=C(/C=C/C(N)=O)C[C@@H]12 yielded a TGI (KM20L2 colon) of 891 nM, a TGI (HCC-2998 colon) of 132 nM and a TGI (SK-MEL-2 melanoma) of 22.3 nM. For the same molecule, the TGI (LOX IMVI melanoma) was 1290 nM, the TGI (T-47D breast) was greater than 7990 nM and the TGI (RPMI-8226 leukemia) was 8510 nM. For the same molecule, the TGI (OVCAR-3 ovarian) was 192 nM, the TGI (KM12 colon) was 7200 nM and the TGI (MOLT-4 leukemia) was 6290 nM. The TGI (NCI-H226 lung) was 470 nM, the TGI (SF-295 CNS) was 1750 nM and the TGI (DLD-1 colon) was greater than 47600 nM. It also gave a TGI (CAKI-1 renal) of 211 nM, a TGI (P388 leukemia) of 283 nM and a TGI (RXF 393 renal) of 233 nM. For the same molecule, the TGI (HCT-15 colon) was 758 nM, the TGI (NCI-H23 lung) was 354 nM and the TGI (K-562 leukemia) was 27800 nM. It also gave a TGI (EKVX NSCLC) of 1030 nM, a TGI (M14 melanoma) of 40.6 nM and a TGI (SF-539 CNS) of 38.4 nM. For the same molecule, the TGI (SK-OV-3 ovarian) was 3720 nM, the TGI (U251 CNS) was 10800 nM and the TGI (A549 NSCLC) was greater than 72300 nM. For the same molecule, the TGI (HL-60(TB) leukemia) was 456 nM, the TGI (SNB-19 CNS) was greater than 58200 nM and the TGI (BT-549 breast) was less than 47.9 nM. It also gave a TGI (TK-10 renal) of 7950 nM, a TGI (SNB-75 CNS) of 57.6 nM and a TGI (SN12C renal) of 1050 nM. For the same molecule, the TGI (NCI-H460 lung) was 31100 nM, the TGI (UO-31 renal) was 45.1 nM and the TGI (PC-3 prostate) was 656 nM. It also gave a TGI (OVCAR-4 ovarian) of 686 nM, a TGI (UACC-62 melanoma) of 36 nM and a TGI (HS 578T breast) of 40.7 nM. The TGI (DMS 114 small cell lung) was 44 nM, the TGI (SW-620 colon) was 17700 nM and the TGI (HOP-62 NSCLC) was 38.6 nM. For the same molecule, the TGI (NCI-H522 lung) was 182 nM, the TGI (MDA-MB-435) was 29.3 nM and the TGI (M19-MEL melanoma) was 93.9 nM. The TGI (786-0 renal) was 2030 nM, the TGI (DU-145 prostate) was greater than 62000 nM and the TGI (MDA-MB-231 breast) was 33.3 nM. The TGI (MCF7 breast) was 8050 nM, the TGI (COLO 205 colon) was 100 nM and the TGI (NCI/ADR-RES ovarian) was 85 nM. It also gave a TGI (A498 renal) of 495 nM, a TGI (OVCAR-8 ovarian) of 2010 nM and a TGI (MDA-N) of 28.3 nM. For the same molecule, the TGI (SK-MEL-28 melanoma) was 82.9 nM, the TGI (SF-268 CNS) was 411 nM and the TGI (OVCAR-5 ovarian) was 5450 nM. It also gave a TGI (HT29 colon) of 1510 nM, a TGI (CCRF-CEM leukemia) greater than 50600 nM and a TGI (MALME-3M melanoma) of 59.1 nM. For the same molecule, the TGI (SNB-78 CNS) was 18400 nM, the TGI (SK-MEL-5 melanoma) was 30.8 nM and the TGI (SR leukemia) was greater than 100000 nM. It also gave a TGI (HOP-92 NSCLC) of 217 nM, a TGI (UACC-257 melanoma) of 134 nM and a TGI (SN12K1 renal) of 47.3 nM. It also gave a TGI (DMS 273 small cell lung) of 118 nM, a TGI (HOP-18 NSCLC) greater than 100000 nM and a TGI (IGROV1 ovarian) of 7330 nM.
